# Source: patent US7214712B2, “Isophthalic acid derivatives as matrix metalloproteinase inhibitors” (Warner-Lambert Company, priority 2001, dated 2007)
# How the values were obtained:
# [1] = target: T1, MMP-1FL (full length interstitial collagenase) (Homo sapiens, UniProt P03956); assay: Thiopeptolide substrate hydrolysis assay, MMP-1FL; type: biochemical; details: HEPES pH 7.0, 22° C.
# T1 sequence (P03956 100-469): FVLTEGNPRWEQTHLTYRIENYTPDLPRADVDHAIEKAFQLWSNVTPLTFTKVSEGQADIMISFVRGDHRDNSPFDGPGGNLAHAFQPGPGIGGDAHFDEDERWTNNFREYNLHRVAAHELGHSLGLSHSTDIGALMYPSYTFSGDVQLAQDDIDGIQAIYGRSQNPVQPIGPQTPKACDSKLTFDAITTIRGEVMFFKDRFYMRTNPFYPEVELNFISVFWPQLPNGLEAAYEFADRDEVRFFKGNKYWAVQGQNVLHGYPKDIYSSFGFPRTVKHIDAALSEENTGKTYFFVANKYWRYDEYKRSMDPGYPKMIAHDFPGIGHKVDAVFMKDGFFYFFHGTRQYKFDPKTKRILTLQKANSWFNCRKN
# Description: Several representative compounds have been evaluated for their ability to inhibit various matrix metalloproteinase enzymes.
# [2] = target: MMP-3CD (catalytic domain of stromelysin-1) (Homo sapiens, UniProt P08254); assay: Thiopeptolide substrate hydrolysis assay, MMP-3CD; type: biochemical; details: 50 mM MES pH 6.0
# Method: It should be appreciated that the assay buffer used with MMP-3CD was 50 mM N-morpholinoethanesulfonate (“MES”) at pH 6.0 rather than the HEPES buffer at pH 7.0 described above.
# [3] = target: MMP-13CD (catalytic domain of collagenase-3) (Homo sapiens, UniProt P45452); assay: Thiopeptolide substrate hydrolysis assay, MMP-13CD; type: biochemical; details: HEPES pH 7.0, 22° C.
# Method: The assays measure the amount by which a test compound reduces the hydrolysis of a thiopeptolide substrate caused by a matrix metalloproteinase enzyme.
# Thiopeptolide substrates show virtually no decomposition or hydrolysis in the absence of a matrix metalloproteinase enzyme. A typical thiopeptolide substrate commonly utilized for assays is Ac-Pro-Leu-Gly-thioester-Leu-Leu-Gly-OEt. A 100-μL assay mixture will contain 50 mM of N-2-hydroxyethylpiperazine-N′-2-ethanesulfonic acid (“HEPES,” pH 7.0), 10 mM CaCl2, 100 μM thiopeptolide substrate, and 1 mM 5,5′-dithio-bis-(2-nitro-benzoic acid) (DTNB). […] Assays are carried out with and without matrix metalloproteinase inhibitor compounds, and the amount of hydrolysis is compared for a determination of inhibitory activity of the test compounds.
# Chain of MMP-3CD (catalytic domain of stromelysin-1) (P08254 100-272 limits assumed): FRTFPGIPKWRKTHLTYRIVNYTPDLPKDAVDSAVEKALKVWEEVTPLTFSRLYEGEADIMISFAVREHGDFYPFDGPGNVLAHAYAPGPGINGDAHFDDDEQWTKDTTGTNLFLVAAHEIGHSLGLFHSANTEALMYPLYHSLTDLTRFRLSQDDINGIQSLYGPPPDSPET
Compound,melting point [°C],IC50 [1] [µM],IC50 [2] [µM],IC50 [3] [µM]
"O=C(NCc1cccc(Cl)c1)c1cccc(C(=O)NCc2cccc(Cl)c2)c1 [Example 18, N,N′-Bis-(3-chloro-benzyl)-isophthalamide]",128 to 130,–,–,–
"COc1ccc(C(=O)OCc2ccc3nsnc3c2)cc1C(=O)OCc1ccc2nsnc2c1 [Example 69, 4-Methoxy-isophthalic acid di-2,1,3-benzothiadiazol-5-ylmethyl ester]",–,30,–,–
"COc1ccc(CNC(=O)c2cccc(C(=O)NCc3ccc(OC)cc3)c2)cc1 [Example 16, N,N′-Bis-(4-methoxy-benzyl)-isophthalamide]",175 to 176,–,–,–
"O=C(NCc1ccc(Cl)cc1)c1cccc(C(=O)NCc2ccc(Cl)cc2)c1 [Example 10, N,N′-Bis-(4-chloro-benzyl)-isophthalamide]",136 to 138,–,–,–
"COc1ccc(COC(=O)c2cccc(C(=O)OCc3ccc(OC)cc3)c2)cc1 [Example 12, Isophthalic acid bis-(4-methoxy-benzyl) ester]",90 to 92,–,–,–
"4-Methoxy-N,N′-bis-(4-methoxy-benzyl)-isophthalamide [Example 24]",–,> 100,> 100,0.28
"COc1cccc(COC(=O)c2cccc(C(=O)OCc3cccc(OC)c3)c2)c1 [Example 13, Isophthalic acid bis-(3-methoxy-benzyl) ester]",68 to 70,–,–,–
"O=C(NCc1ccc2c(c1)OCO2)c1cccc(C(=O)NCc2ccc3c(c2)OCO3)c1 [Example 19, N,N′-Bis-1,3-benzodioxol-5-ylmethyl-isophthalamide]",–,> 100,–,–
"O=C(OCc1cccc(F)c1)c1cccc(C(=O)OCc2cccc(F)c2)c1 [Example 11, Isophthalic acid bis-(3-fluoro-benzyl) ester]",81 to 82,–,–,–
"O=C(NCc1ccc2c(c1)OCO2)c1cccc(C(=O)NCc2ccc3c(c2)OCO3)c1 [Example 28, N,N′-Bis-1,3-benzodioxol-5-ylmethyl-isophthalamide]",–,> 100,–,–
"COc1cccc(CNC(=O)c2cccc(C(=O)NCc3cccc(OC)c3)c2)c1 [Example 30, N,N′-Bis-(3-methoxy-benzyl)-isophthalamide]",–,> 100,> 100,–
"O=C(NCc1cccc(F)c1)c1cccc(C(=O)NCc2cccc(F)c2)c1 [Example 17, N,N′-Bis-(3-fluoro-benzyl)-isophthalamide]",138 to 140,–,–,–
"CCOc1ccc(C(=O)NCc2cccc(OC)c2)cc1C(=O)NCc1cccc(OC)c1 [Example 64, 4-Ethoxy-N′1,N″3-bis-(3-methoxy-benzyl)-isophthalamide]",–,> 100,> 100,–
"COc1ccc(C(=O)OCc2ccncc2)cc1C(=O)OCc1ccncc1 [Example 5, 4-Methoxy-isophthalic acid dipyridin-4-ylmethyl ester]",–,> 100,> 100,0.255
"O=C(OCc1ccc2nsnc2c1)c1cccc(C(=O)OCc2ccc3nsnc3c2)c1 [Example 3, Isophthalic acid di-(2,1,3-benzothiadiazol-5-yl)methyl ester]",–,> 100,> 30,–
"N,N′-Bis-(4-methoxy-benzyl)-isophthalamide [Example 39]",–,> 100,> 100,2.74
"O=C(OCc1ccc2c(c1)OCO2)c1cccc(C(=O)OCc2ccc3c(c2)OCO3)c1 [Example 14, Isophthalic acid bis-(1,3-benzodioxol-5-ylmethyl) ester]",109 to 110,–,–,–
